Reference: the NIST ThermoML archive (doi:10.1021/acs.jced.8b00181)

Columns and labels:
[1] = mn = molality of the nth substance listed, in mol/kg; settings: 298 K, 100 kPa, Liquid, Frequency=0.001 MHz, Alternating current cell with electrodes
[2] = refractive index (Na D-line) (dimensionless); mn = molality of the nth substance listed, in mol/kg; settings: 298 K, 100 kPa, Liquid, Standard Abbe refractometry
[3] = refractive index (Na D-line) (dimensionless); settings: 298 K; 101.33 kPa; Liquid; Standard Abbe refractometry
[4] = 298 K; 100 kPa; Liquid; Frequency=0.001 MHz; Alternating current cell with electrodes

CCO [ethanol] + O
Settings	electrical conductivity, [1] [S/m]	refractive index, [2]
m1 = 0.9	0.000248	1.3362
m1 = 1.46	0.000259	1.3375
m1 = 2.69	0.000287	1.34
m1 = 4.09	0.000311	1.3431
m1 = 7.59	0.000251	1.3497
m1 = 9.51	0.000252	1.3521

CC(C)O [propan-2-ol] + O
Settings	electrical conductivity, [1] [S/m]	refractive index, [2]
m1 = 0.85	0.000134	1.3374
m1 = 1.45	0.000141	1.3408
m1 = 2.84	8.2e-05	1.3467
m1 = 4.36	9.4e-05	1.3511
m1 = 8.72	5e-05	1.361
m1 = 13.08	4.7e-05	1.365

CCO [ethanol]
Settings	refractive index
[3]	1.36

CCCCCCCCCCCCOS(=O)(=O)[O-].[Na+] [sodium dodecyl sulfate] + O
[1]
Settings	electrical conductivity [S/m]
m1 = 0.00099	0.00957
m1 = 0.00198	0.0183
m1 = 0.00297	0.0271
m1 = 0.00396	0.0357
m1 = 0.00495	0.0443
m1 = 0.00594	0.0528
m1 = 0.00693	0.061
m1 = 0.00792	0.0684
m1 = 0.00891	0.074
m1 = 0.0099	0.0777
m1 = 0.01089	0.0813
m1 = 0.01188	0.0846
m1 = 0.01287	0.0878
m1 = 0.01386	0.09108

CCCO [propan-1-ol] + O
Settings	electrical conductivity, m1 = 0.87 [S/m]	electrical conductivity, m1 = 1.49 [S/m]	electrical conductivity, m1 = 2.76 [S/m]	electrical conductivity, m1 = 4.29 [S/m]	electrical conductivity, m1 = 6.77 [S/m]	refractive index, m1 = 0.87	refractive index, m1 = 1.49	refractive index, m1 = 2.76	refractive index, m1 = 4.29	refractive index, m1 = 6.77
[1]	0.000153	0.000145	0.000111	0.000117	0.000143	–	–	–	–	–
[2]	–	–	–	–	–	1.3381	1.3414	1.3465	1.3516	1.3572

CCCO [propan-1-ol]
Settings	refractive index
[3]	1.3834

O [water]
Settings	electrical conductivity [S/m]	refractive index
[3]	–	1.3327
[4]	0.000502	–

CC(C)O [propan-2-ol]
Settings	refractive index
[3]	1.3758
